Experimental data reported in patent publication US9447062B2, “Manumycin-type metabolite called Colabomycin E which inhibits caspase 1 and creation of interleukins, strain produces the Colabomycin E and a method of a production of the Colabomycin E” (BIOLOGY CENTRE AS CR, v. v. i., priority 2014, dated 2016).

Experiments:
[1] = tested on: IL-1β release from THP-1 cells (caspase 1); experiment: IL-1β release from TNFα-stimulated THP-1 cells; assay type: cell-based, human; settings: for concentration at which the dose curve reached an inhibitory plateau (IL-1β release) / concentration from which IL-1β release is significantly inhibited: TNFα 50 ng/ml
Experimental: (§1) Antibacterial activity of colabomycin E was tested by disc diffusion method. The strains were cultivated on MH agar plates at 36° C., aerobically for 18 hrs. For streptococci the media was supplemented with 5% sheep blood and the bacteria were cultivated aerobically for 20 hrs in 5% CO2. Colabomycin E samples dissolved in dioxane were applied to standard 6 mm discs; therefore zone diameters below 7 mm indicate no growth inhibition. The anti-inflammatory effect of colabomycin E was assayed on the TNFα-stimulated human monocyte/macrophage cell line THP-1. The cells were cultured in RPMI-1640 medium, supplemented with 10% heat inactivated fetal calf serum (FCS), L-glutamine, penicillin and streptomycin. Cells were seeded into 6-well tissue culture plates at a density of 2×10^6 cells per 2 ml per well and cultured under a 5% CO2 atmosphere at 37° C. THP-1 cells were stimulated with TNFα (50 ng/ml) under serum free conditions in the presence of colabomycin or manumycin A.
Unstimulated cells were used as controls. IL-1β release was measured through flow cytometry in culture supernatants by Fluorokine MAP human base kit A using the Luminex^100 System. In the first step, 50 μl of the samples/standards were incubated with 50 μl of microparticles for 3 hours at RT on a horizontal orbital microplate shaker. After washing the unbound substances, 50 μl of the secondary antibodies conjugated with biotin was added to each well and incubated the samples/standards for another 1 hour. After the incubation, the unbound secondary antibodies were washed and 50 μl of the Streptavidin-PE was added. After the 30 minutes of incubation, the samples/standards were washed and resuspended the microparticles in 100 μl of wash buffer. Samples/standards were read using a Luminex analyzer.

[2] = tested on: IL-8 production in THP-1 cells; experiment: IL-8 production in THP-1 cells stimulated with TNFα; assay type: cell-based, human; settings: 0.5 μM
Experimental: as §1

[3] = tested on: IL-18 production in THP-1 cells; experiment: IL-18 production in THP-1 cells stimulated with TNFα; assay type: cell-based, human; settings: 0.5 μM
Experimental: as §1

[4] = tested on: IL-6 production in THP-1 cells; experiment: IL-6 production in THP-1 cells stimulated with TNFα; assay type: cell-based, human; settings: 0.5 μM
Experimental: as §1

Gram^− = experiment: Antibacterial activity, disc diffusion method; assay type: cell-based
Experimental: (§2) FIG. 10: Antibacterial features of colabomycin E—disc diffusion method. Colabomycin E samples were applied to standard 6 mm discs; therefore the zone diameters bellow 7 mm mean no growth inhibition. The strains kindly provided by the Czech National Collection of Type Cultures.
as §1

[5] = tested on: Gram^+ bacteria, mainly staphylococci and streptococci; experiment: Antibacterial activity, disc diffusion method; assay type: cell-based
Experimental: as §2, §1

[6] = tested on: human leukemic Jurkat cells; experiment: Pro-apoptotic features, Annexin V-FITC flow cytometry; assay type: cell-based; settings: 4 hours
Experimental: Proapoptotic features were assayed using human Jurkat cells. The cells were cultivated in RPMI medium supplemented with 10% FBS and antibiotics. Just before experiments cells were plated into the fresh medium at 4×10^5 cells/ml in 24-well cultivation plates. They were treated with increasing concentrations of manumycin A (positive control) and colabomycin E for 4 hours. Cells were then harvested by centrifugation and apoptotic cells were labeled by Annexin V-FITC. The stained cells were subsequently analyzed by flow cytometry analysis in a Guava EasyCyte flow cytometer and the obtained data were evaluated using FlowJo software.)

| Compound | concentration at which the dose curve reached an inhibitory plateau (IL-1β release) [1] [µM] | concentration from which IL-1β release is significantly inhibited [1] [µM] | IL-8 production [2] | IL-18 production [3] | IL-6 production [4] | effect on Gram− bacteria (Gram^−) | anti-bacterial effects (overall) [5] | growth of Gram+ bacteria ([5]; in higher concentrations) | IL-1β release from THP-1 cells [1] | pro-apoptotic features ([6]; 5 μM) | pro-apoptotic effect relative to manumycin A [6] |
| --- | --- | --- | --- | --- | --- | --- | --- | --- | --- | --- | --- |
| CCCC[C@@H](C)/C=C(C)/C=C(\C)C(=O)NC1=C[C@@](O)(/C=C/C=C/C=C/C(=O)NC2=C(O)CCC2=O)[C@@H]2O[C@@H]2C1=O [manumycin A, reference compound] | 0.5 | 0.25 | – | – | – | – | – | – | – | – | – |
| Colabomycin E | 0.5 | 0.25 | inhibit | inhibit | inhibit | no effect | quite mild | suppresses growth | significantly inhibited | weak pro-apoptotic features | substantially weaker |
